In patent US10456389B2, “Extended release nicotinamide formulation” (Ferring B.V., priority 2013, dated 2019):
≈ marks a conversion by molar mass, not a printed value.

Legend:
[1] = Release testing, USP paddle apparatus, purified water, UV at 260 nm; assay type: physicochemical; settings: raw material, 0.2 g in 100 ml water; FIG. 1
Description: Dissolution experiments were performed in a Sotax AT7 Dissolution apparatus, USP paddle.
All assays were performed in a Shimadzu UV-1700 spectrophotometer.
Release testing was performed in a USP paddle apparatus using 500 ml purified water as release medium and operated at 100 rpm. The results were quantified by a Shimadzu spectrophotometer at 260 nm after dilution 1:50.
To assess whether the ethylcellulose film coating was able to delay the release of nicotinamide, the release from the coated 95% granules (RD1302-2-C1) was tested and compared to the release from the raw material. Nicotinamide from the raw material (0.2 g in 100 ml water) was dissolved very quickly and within 5 minutes. […] Release of the remaining nicotinamide started later than 30 minutes, and after 3 hours 85% had been released. This means that release of nicotinamide can be released over 3 hours by applying an ethylcellulose film.

[2] = cited from earlier work

Time until dissolved [1]: ≤ 5 min
SMILES: NC(=O)c1cccnc1 [Nicotinamide]
Solubility in 96% ethanol ([2]; 96% ethanol): 660 mg/mL (≈ 5400 mM)
Solubility in water ([2]; water, 20° C.): 690 mg/mL (≈ 5650 mM)
